Data set [1] has as its system aspergillus, penicillum, fusarium, and candida in nasal mucus. Briefly: kill-off time in vitro of fungi in nasal mucus. The class given is cell-based. The settings on record: 1% NCT-Na added to nasal mucus (diluted 1:10) of rhinosinusitis. The method, then: In the case of rhinosinusitis various species of fungus were found in the nasal mucus, e.g., aspergillus, penicillum, fusarium, and candida. If (diluted 1:10) 1% NCT-Na is added to this nasal mucus, then the kill-off time in vitro is less than 30 minutes.

Data set [2] is described as follows: tolerability in vivo at various application sites. The note with it: eye, middle ear, outer ear, skin ulcers, oral cavity, bladder.
Data set [3] in a line: treatment of rhinosinusitis patients by nasal catheter rinsing. The class given is in vivo, human. From the text:
Treatments with traditional fungicidal agents have on the contrary previously led to no success.
The importance of the agent lies, among other things, in the fact that, in the case of the mucus tissue polyps occurring in rhinosinusitis, regression could be observed so that the previously successful standard therapy, namely operative removal, can be avoided by the use of the agent according to the invention.
A person suffers from chronic rhinosinusitis with clear swelling of the mucus membranes in both maxillary sinuses with retention of secretion on the left, in ethmoid bone cells, sphenoidal sinus, and in the left frontal sinus. Labored nasal respiration. For 2 1/2 months increasing headaches at the back of the head, no improvement on antibiotic therapy.
The treatment with 1% NCT-Na took place over a total of 4 weeks, 3 times weekly, and included 12 treatments in all. Each time a 10-ml NCT-Na solution was applied by means of a nasal catheter (YAMIK) over a period of time of 12 minutes. Thereafter the rinsing solution was suctioned off.
patient suffered from chronic rhinosinusitis for ca. 1 year with swelling of the mucus membranes and increased secretion in the nasal cavity and all its adjacent cavities, strong polyposis and loss of the sense of smell.

The nature of data set [4]: treatment of patients with otitis externa with saturated strips. The note with it: changed daily. Format: in vivo, human. Here is the method:
A group of 10 patients who suffered from otitis externa with affliction of the auditory canal were treated. For treatment, 12 cm long strips (tampons by Rauscher) were placed into the external auditory canal. The test group (5 persons) was treated with strips which were saturated with 1-ml 1% NCT-Na, the control group (5 persons) with strips which were saturated with 1-ml otosporin (content per ml: 10,000 IU polymyxin B sulfate, 3.5 mg neomycin as neomycin sulfate, 10 mg hydrocortisone).
The treatment was done over 5 days. The strips were changed daily.

The nature of data set [5]: treatment of patients with ulcus cruris with saturated swabs. The class given is in vivo, human. The note with it: Example 4, 1% NCT-Na versus 1% chloramine T control group. The method, then:
A group of 25 patients who suffered from ulcus cruris were treated. The treatment was done with swabs which were saturated with an aqueous solution of 1% NCT-Na (test group, 14 patients) or 1% chloramine T (control group, 11 patients) and applied directly to the ulcers and left there. The treatment was done over 5-14 days. The swabs were changed twice daily.

Take `O=S(=O)(O)CCNCl` [NCT-Na, N-chlorotaurine]: in data set [1], the “kill-off time in vitro” value was “less than 30 minutes”. For the same compound, the tolerability in vivo entry in data set [2] is reported as “tolerated outstandingly”. The formation of secretion entry in data set [3] (Example 1, 1% NCT-Na, after 7 treatments) is “strong decline”. Moreover, the nasal respiration entry in data set [3] (Example 1, 1% NCT-Na, after 9 treatments) is “clearly improved”. Further, the pains result in data set [3] (Example 1, person, 1% NCT-Na 10 ml, 3 times weekly, after the second application) is listed as “complete remission of the pains”. In addition, the polyposis nasi result in data set [3] (Example 2, 1% NCT-Na, at the end of the treatments (12 treatments, 4 weeks)) is “unambiguous regression”. In addition, the sense of smell entry in data set [3] (Example 2, patient, 1% NCT-Na 10 ml, 3 times weekly, after the sixth application) is reported as “substantial restoration”. The “symptoms of rhinosinusitis (pains, head pressure, loss of sense of smell, increased secretion, polyp formation)” value in data set [3] (trials with rhinosinusitis patients, treatment of internal nasal surfaces with NCT-Na solution) is “improved substantially”. The tolerability result in data set [4] (Example 3, strips saturated with 1 ml 1% NCT-Na in external auditory canal, 5 days) is recorded as “well tolerated”. Besides, the “period until healing, on average” value in data set [4] (Example 3, strips saturated with 1 ml test solution) was determined as 3 days. Moreover, the “pains after application of the solution” value in data set [5] is given as “significantly less pains”.

The values are drawn from patent US20090182055A1, “FUNGICIDAL AGENT CONTAINING N-CHLOROTAURINE AND USE THEREOF” (priority 2000, published 2009).
